Data reported in ChEMBL document CHEMBL4482317, “Phosphatidylcholine transfer protein inhibitors” (2017).
The source made the active and inactive calls. The calls are words filed in the database; no cut-off is given here.

How the values were obtained:
[1] = molecular target: T1, Phosphatidylcholine transfer protein (Homo sapiens) (UniProt Q9UKL6); assay: Inhibition of PC-TP in human hepatocytes assessed as enhancement of insulin signaling by measuring p-AMPK-alpha T172 levels at 0.05 to 0.1 uM incubated for 60 mins by immunoblot analysis; assay type: cell-based
T1 sequence (whole entry): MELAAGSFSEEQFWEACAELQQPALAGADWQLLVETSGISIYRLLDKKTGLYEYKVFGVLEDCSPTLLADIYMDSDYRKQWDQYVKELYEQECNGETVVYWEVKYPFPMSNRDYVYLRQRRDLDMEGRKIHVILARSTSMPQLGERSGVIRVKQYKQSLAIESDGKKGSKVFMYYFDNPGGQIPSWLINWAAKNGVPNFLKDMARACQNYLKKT

[2] = molecular target: T1, Phosphatidylcholine transfer protein (Homo sapiens); assay: Inhibition of PC-TP in human hepatocytes assessed as enhancement of insulin signaling by measuring p-AKT S473 levels at 0.05 to 0.1 uM incubated for 60 mins by immunoblot analysis; assay type: cell-based
[3] = molecular target: T1, Phosphatidylcholine transfer protein (Homo sapiens); assay: Inhibition of PC-TP in human hepatocytes assessed as enhancement of insulin signaling by measuring p-GSK-3beta S9 levels at 0.05 to 0.1 uM incubated for 60 mins by immunoblot analysis; assay type: cell-based
[4] = molecular target: T1, Phosphatidylcholine transfer protein (Homo sapiens); assay: Inhibition of PC-TP in human hepatocytes assessed as enhancement of insulin signaling by measuring p-S6K T389 levels at 0.05 to 0.1 uM incubated for 60 mins by immunoblot analysis; assay type: cell-based
[5] = molecular target: T2, Phosphatidylcholine transfer protein (Homo sapiens, UniProt Q9UKL6); assay: Inhibition of N-terminal His-tagged human PC-TP expressed in Escherichia coli using NBD-PC and donor and acceptor small unilamellar vesicles by fluorescence quench assay
T2 sequence (Q9UKL6 whole entry): T1 sequence (whole entry)

[6] = molecular target: T1, Phosphatidylcholine transfer protein (Homo sapiens); assay: Binding affinity to N-terminal His-tagged human PC-TP expressed in Escherichia coli at 5 to 75 uM in presence of TCNQ by fluorescent pyrene-labeled phosphatidylcholine based displacement assay
[7] = molecular target: T1, Phosphatidylcholine transfer protein (Homo sapiens); assay: Binding affinity to N-terminal His-tagged human PC-TP expressed in Escherichia coli assessed as relative binding constant K(rel) at 5 to 75 uM in presence of TCNQ by fluorescent pyrene-labeled phosphatidylcholine based displacement assay relative to control

inhibition [1] | inhibition [2] | inhibition [3] | inhibition [4] | IC50 [5] | Activity [6] | Ratio [7] | Structure (SMILES)
Active | Active | Active | Active | – | – | – | O=C(Nc1cc(Cl)cc(Cl)c1)C(Sc1cccc[n+]1[O-])c1ccccc1 (stereo unspecified)
– | – | – | – | 100 µM | – | – | Cc1ccc(NC(=O)C(Sc2cccc[n+]2[O-])c2ccccc2)cc1Cl (stereo unspecified)
Active | Active | Active | Active | – | Dose-dependent effect | 1.1 | Cc1cc(C)nc(NS(=O)(=O)c2ccc(NC(=O)NC(=O)c3ccc(Cl)cc3Cl)cc2)n1
